Our source for the IC50 values is patent US11634447B2 (priority 2012, dated 2023).

SMILES strings stand for the structures.

The test has as its system bacterial strain LF82 binding to the glycoprotein BSA-(Mannose)3. The experiment in a line: Bacterial Binding Assay (BBA). As to conditions: read-out: Bacterial Binding Assay IC50, LF82/Luciferase strain binding to BSA-(Man)3 coated plates, luminescence. It counts as cell-based, Escherichia coli. Summed up: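 Inhibition of LF82/luciferase E. coli adhesion is read as luminescence after washing off unbound cells. Compound and bacteria (10^7 per well) are co-incubated 40-75 min at room temperature on wells coated with 0.5-2 μg/mL BSA-(Man)3, with BSA-only wells as background; IC50 values derived.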
In the case of `[2H]C([2H])([2H])OCCn1c2cc(C#C[C@H]3O[C@H](CO)[C@@H](O)[C@H](O)[C@@H]3O)ccc2c2ccc(C#C[C@H]3O[C@H](CO)[C@@H](O)[C@H](O)[C@@H]3O)cc21` [Compound 183, (2R,3S,4R,5S,6R)-2-(Hydroxymethyl)-6-[2-[9-[2-(trideuteriomethoxy)ethyl]-7-[2-[(2R,3S,4R,5S,6R)-3,4,5-trihydroxy-6-(hydroxymethyl)tetrahydropyran-2-yl]ethynyl]carbazol-2-yl]ethynyl]tetrahydropyran-3,4,5-triol], the IC50 was found to be 0.76 nM.
As for `Cc1cc(-c2ccc([C@H]3O[C@H](CO)[C@@H](O)[C@H](O)[C@@H]3O)cc2)ccc1[C@H]1O[C@H](CO)[C@@H](O)[C@H](O)[C@@H]1O` [Compound 64], the IC50 was 15 nM.
On to `CCCC1(O)c2cc(C#C[C@H]3O[C@H](CO)[C@@H](O)[C@H](O)[C@@H]3O)ccc2-c2ccc(C#C[C@H]3O[C@H](CO)[C@@H](O)[C@H](O)[C@@H]3O)cc21` [Compound 168, (2R,3S,4R,5S,6R)-2-(hydroxymethyl)-6-[2-[9-hydroxy-9-propyl-7-[2-[(2R,3S,4R,5S,6R)-3,4,5-trihydroxy-6-(hydroxymethyl)tetrahydropyran-2-yl]ethynyl]fluoren-2-yl]ethynyl]tetrahydropyran-3,4,5-triol], for which the IC50 came to 3.1 nM.
Next, `OC[C@H]1O[C@H](C#Cc2ccc3nc(C#C[C@H]4O[C@H](CO)[C@@H](O)[C@H](O)[C@@H]4O)ccc3c2)[C@@H](O)[C@@H](O)[C@@H]1O` [Compound 126, (2R,3S,4R,5S,6R)-2-(hydroxymethyl)-6-[2-[2-[2-[(2R,3S,4R,5S,6R)-3,4,5-trihydroxy-6-(hydroxymethyl)tetrahydropyran-2-yl]ethynyl]-6-quinolyl]ethynyl]tetrahydropyran-3,4,5-triol]: 124 nM; `O=C(c1cnccn1)c1c(C#C[C@H]2O[C@H](CO)[C@@H](O)[C@H](O)[C@@H]2O)ccc2c1C1(CCNCC1)c1cc(C#C[C@H]3O[C@H](CO)[C@@H](O)[C@H](O)[C@@H]3O)ccc1-2` [Compound 236, [2,7-bis[2-[(2R,3S,4R,5S,6R)-3,4,5-trihydroxy-6-(hydroxymethyl)tetrahydropyran-2-yl]ethynyl]spiro[fluorene-9,4piperidine]-1yl]-pyrazin-2-yl-methanone]: 0.5 nM; `CCCCCCc1cc(C#C[C@H]2O[C@H](CO)[C@@H](O)[C@H](O)[C@@H]2O)c(CCCCCC)cc1C#C[C@H]1O[C@H](CO)[C@@H](O)[C@H](O)[C@@H]1O` [Compound 82, (2R,3S,4R,5S,6R)-2-[2-[2,5-dihexyl-4-[2-[(2R,3S,4R,5S,6R)-3,4,5-trihydroxy-6-(hydroxymethyl)tetrahydropyran-2-yl]ethynyl]phenyl]ethynyl]-6-(hydroxymethyl)tetrahydropyran-3,4,5-triol]: 18 nM.
Turning to `OCCC1(CCO)c2cc(C#C[C@H]3O[C@H](CO)[C@@H](O)[C@H](O)[C@@H]3O)ccc2-c2ccc(C#C[C@H]3O[C@H](CO)[C@@H](O)[C@H](O)[C@@H]3O)cc21` [Compound 193, (2R,3S,4R,5S,6R)-2-[2-[9,9-Bis(2-hydroxyethyl)-7-[2-[(2R,3S,4R,5S,6R)-3,4,5-trihydroxy-6-(hydroxymethyl)tetrahydropyran-2-yl]ethynyl]fluoren-2-yl]ethynyl]-6-(hydroxymethyl)tetrahydropyran-3,4,5-triol], the IC50 came to 0.27 nM.
As for `OC[C@H]1O[C@H](C#Cc2ccc3c4ccc(C#C[C@H]5O[C@H](CO)[C@@H](O)[C@H](O)[C@@H]5O)cc4n(CCN4CCOCC4)c3c2)[C@@H](O)[C@@H](O)[C@@H]1O` [Compound 189, (2R,3S,4R,5S,6R)-2-(hydroxymethyl)-6-[2-[9-(2-morpholinoethyl)-7-[2-[(2R,3S,4R,5S,6R)-3,4,5-trihydroxy-6-(hydroxymethyl)tetrahydropyran-2-yl]ethynyl]carbazol-2-yl]ethynyl]tetrahydropyran-3,4,5-triol], the IC50 was 7.8 nM.
For `OC[C@H]1O[C@H](C#Cc2ccc3c(c2)C(CO)(CO)c2cc(C#C[C@H]4O[C@H](CO)[C@@H](O)[C@H](O)[C@@H]4O)ccc2-3)[C@@H](O)[C@@H](O)[C@@H]1O` [Compound 217, (2R,3S,4R,5S,6R)-2-[2-[9,9-Bis(hydroxymethyl)-7-[2-[(2R,3S,4R,5S,6R)-3,4,5-trihydroxy-6-(hydroxymethyl)tetrahydropyran-2-yl]ethynyl]fluoren-2-yl]ethynyl]-6-(hydroxymethyl)tetrahydropyran-3,4,5-triol], the IC50 stood at 20 nM.
Consider `OC[C@H]1O[C@H](C#Cc2ccc(C#C[C@H]3O[C@H](CO)[C@@H](O)[C@H](O)[C@@H]3O)c3ccccc23)[C@@H](O)[C@@H](O)[C@@H]1O` [Compound 136, (2R,3S,4R,5S,6R)-2-(hydroxymethyl)-6-[2-[4-[2-[(2R,3S,4R,5S,6R)-3,4,5-trihydroxy-6-(hydroxymethyl)tetrahydropyran-2-yl]ethynyl]-1-naphthyl]ethynyl]tetrahydropyran-3,4,5-triol], for which the IC50 turned out to be 145 nM.
Regarding `COc1cc([C@H]2O[C@H](CO)[C@@H](O)[C@H](O)[C@@H]2O)ccc1C#C[C@H]1O[C@H](CO)[C@@H](O)[C@H](O)[C@@H]1O` [Compound 145], the IC50 came to 430 nM.
Turning to `CCOC(=O)c1c(C#C[C@H]2O[C@H](CO)[C@@H](O)[C@H](O)[C@@H]2O)ccc2c1C1(CCNCC1)c1cc(C#C[C@H]3O[C@H](CO)[C@@H](O)[C@H](O)[C@@H]3O)ccc1-2` [Compound 209, ethyl 2,7-bis[2-[(2R,3S,4R,5S,6R)-3,4,5-trihydroxy-6-(hydroxymethyl)tetrahydropyran-2-yl]ethynyl]spiro[fluorene-9,4 piperidine]-1 carboxylate], the IC50 came to 0.07 nM.
With `OC[C@H]1O[C@H](C#Cc2ccc(C#C[C@H]3O[C@H](CO)[C@@H](O)[C@H](O)[C@@H]3O)c(Cl)c2)[C@@H](O)[C@@H](O)[C@@H]1O` [Compound 102, (2R,3S,4R,5S,6R)-2-[2-[3-chloro-4-[2-[(2R,3S,4R,5S,6R)-3,4,5-trihydroxy-6-(hydroxymethyl)tetrahydropyran-2-yl]ethynyl]phenyl]ethynyl]-6-(hydroxymethyl)tetrahydropyran-3,4,5-triol], the IC50 came to 24 nM.
As for `COc1cc(C#C[C@H]2O[C@H](CO)[C@@H](O)[C@H](O)[C@@H]2O)ccc1C#C[C@H]1O[C@H](CO)[C@@H](O)[C@H](O)[C@@H]1O` [Compound 71], the IC50 was determined as 28 nM.
On to `O=C1CC[C@H](C(=O)c2c(C#C[C@H]3O[C@H](CO)[C@@H](O)[C@H](O)[C@@H]3O)ccc3c2C2(CCNCC2)c2cc(C#C[C@H]4O[C@H](CO)[C@@H](O)[C@H](O)[C@@H]4O)ccc2-3)N1` [Compound 243, (5R)-5-[2,7-bis[2-[(2R,3S,4R,5S,6R)-3,4,5-trihydroxy-6-(hydroxymethyl)tetrahydropyran-2-yl]ethynyl]spiro[fluorene-9,4piperidine]-1carbonyl]pyrrolidin-2-one], for which the IC50 is 0.22 nM.
Take `OC[C@H]1O[C@H](C#Cc2ccc3c(c2)C(O)(CC2CCCC2)c2cc(C#C[C@H]4O[C@H](CO)[C@@H](O)[C@H](O)[C@@H]4O)ccc2-3)[C@@H](O)[C@@H](O)[C@@H]1O` (stereo partly drawn) [Compound 214, (2R,3S,4R,5S,6R)-2-[2-[9-(cyclopentylmethyl)-9-hydroxy-7-[2-[(2R,3S,4R,5S,6R)-3,4,5-trihydroxy-6-(hydroxymethyl)tetrahydropyran-2-yl]ethynyl]fluoren-2-yl]ethynyl]-6-(hydroxymethyl)tetrahydropyran-3,4,5-triol]: the IC50 came out at 0.45 nM.
With `O=C(CN1CCOCC1)N1CCC2(CC1)c1cc(C#C[C@H]3O[C@H](CO)[C@@H](O)[C@H](O)[C@@H]3O)ccc1-c1ccc(C#C[C@H]3O[C@H](CO)[C@@H](O)[C@H](O)[C@@H]3O)cc12` [Compound 221, 1-[2,7-bis[2-[(2R,3S,4R,5S,6R)-3,4,5-trihydroxy-6-(hydroxymethyl)tetrahydropyran-2-yl]ethynyl]spiro[fluorene-9,4piperidine]-1l]-2-morpholino-ethanone] the figure was 0.04 nM.
Regarding `CO[C@H](C)C(=O)c1c(C#C[C@H]2O[C@H](CO)[C@@H](O)[C@H](O)[C@@H]2O)ccc2c1C1(CCNCC1)c1cc(C#C[C@H]3O[C@H](CO)[C@@H](O)[C@H](O)[C@@H]3O)ccc1-2` [Compound 229, (2R)-1-[2,7-bis[2-[(2R,3S,4R,5S,6R)-3,4,5-trihydroxy-6-(hydroxymethyl)tetrahydropyran-2-yl]ethynyl]spiro[fluorene-9,4piperidine]-1yl]-2-methoxy-propan-1-one], the IC50 is 0.35 nM.
With `O=C(Cn1c2cc(C#C[C@H]3O[C@H](CO)[C@@H](O)[C@H](O)[C@@H]3O)ccc2c2ccc(C#C[C@H]3O[C@H](CO)[C@@H](O)[C@H](O)[C@@H]3O)cc21)NCCN1CCOCC1` [Compound 178, 2-[2,7-bis[2-[(2R,3S,4R,5S,6R)-3,4,5-trihydroxy-6-(hydroxymethyl)tetrahydropyran-2-yl]ethynyl]carbazol-9-yl]-N-(2-morpholinoethyl)acetamide] the figure was 3.1 nM; with `CCC(=O)c1c(C#C[C@H]2O[C@H](CO)[C@@H](O)[C@H](O)[C@@H]2O)ccc2c1C1(CCNCC1)c1cc(C#C[C@H]3O[C@H](CO)[C@@H](O)[C@H](O)[C@@H]3O)ccc1-2` [Compound 223, 1-[2,7-bis[2-[(2R,3S,4R,5S,6R)-3,4,5-trihydroxy-6-(hydroxymethyl)tetrahydropyran-2-yl]ethynyl]spiro[fluorene-9,4piperidine]-1-yl]propan-1-one], 0.06 nM.
With `OC[C@H]1O[C@H](c2cc3ccc(C#C[C@H]4O[C@H](CO)[C@@H](O)[C@H](O)[C@@H]4O)cc3[nH]2)[C@@H](O)[C@@H](O)[C@@H]1O` [Compound 146, (2R,3 S,4R,5S,6R)-2-(hydroxymethyl)-6-[2-[2-[(2R,3 S,4R,5S,6R)-3,4,5-trihydroxy-6-(hydroxymethyl)tetrahydropyran-2-yl]-1H-indol-6-yl]ethynyl]tetrahydropyran-3,4,5-triol], the IC50 is 165 nM.
